# “Also recorded” adds a separate entry of the source.
# How the values were obtained:
# C. lari = details: taxon 18: C. lari; cited from earlier work
# C. sputorum = details: taxon 22: C. sputorum; cited from earlier work
# C. jejuni subsp. Doylei = details: taxon 15: C. jejuni subsp. Doylei; cited from earlier work
# C. jejuni subsp. Jejuni = details: taxon 16: C. jejuni subsp. Jejuni; cited from earlier work
# C. avium sp. Nov = details: taxon 1: C. avium sp. Nov; cited from earlier work
# C. curvus = details: taxon 6: C. curvus; cited from earlier work
# [1] = test system: C. hyointestinalis subsp. lawsonii; details: taxon 13: C. hyointestinalis subsp. lawsonii; cited from earlier work
# C. fetus subsp. fetus = details: taxon 7: C. fetus subsp. fetus; cited from earlier work
# [2] = test system: C. hyointestinalis subsp. hyointestinalis; details: taxon 12: C. hyointestinalis subsp. hyointestinalis; cited from earlier work
# C. concisus = details: taxon 4: C. concisus; cited from earlier work
# [3] = test system: C. fetus subsp. venerealis; details: taxon 8: C. fetus subsp. venerealis; cited from earlier work
# C. upsaliensis = details: taxon 23: C. upsaliensis; cited from earlier work
# C. coli = details: taxon 3: C. coli; cited from earlier work
# C. rectus = details: taxon 20: C. rectus; cited from earlier work
# C. helveticus = details: taxon 10: C. helveticus; cited from earlier work
# [4] = test system: novel campylobacter isolates; assay: Disc diffusion susceptibility to nalidixic acid and cephalothin (30 μg discs); format: cell-based; details: for susceptibility / resistance of the novel Campylobacter strains, in words: disc diffusion tests, 30 μg disc, novel Campylobacter strains overall; for Susceptibility to (30 μg disc): disc diffusion; for resistance (share of strains positive): taxon A: Campylobacter novel (n=23); on Susceptibility to (30 μg disc): key: S, susceptible; R, resistant
# C. showae = details: taxon 21: C. showae; cited from earlier work
# C. insulaenigrae = details: taxon 14: C. insulaenigrae; cited from earlier work
# C. mucosalis = details: taxon 19: C. mucosalis; cited from earlier work
# [5] = test system: Campylobacter novel strains; assay: Antimicrobial susceptibility testing by agar dilution method (MIC); details: Campylobacter;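 further: agar dilution MIC on HBA, used in place of the BSAC-recommended Iso-sensitest agar, across a panel of 14 antimicrobials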
# Procedure: Antimicrobial susceptibility testing was performed using the agar dilution method for the Campylobacter novel strains against 14 antimicrobials. […] As the strains were unable to grow on the Iso-sensitest agar (ISA) recommended by the BSAC guidelines, HBA (Table 1) was used as an alternative media.
# C. hominus = details: taxon 11: C. hominus; cited from earlier work
# C. gracilis = details: taxon 9: C. gracilis; cited from earlier work
# C. cuniculurom = details: taxon 5: C. cuniculurom; cited from earlier work
# C. canadensis = details: taxon 2: C. canadensis; cited from earlier work
# C. lanienae = details: taxon 17: C. lanienae; cited from earlier work
compound,measurement,setting,value
CC(=O)OCC1=C(C(=O)O)N2C(=O)[C@@H](NC(=O)Cc3cccs3)[C@H]2SC1 [Cephalothin],resistance (share of strains positive),C. lari,"+ (+, 90-100% of strains positive)"
same,resistance (share of strains positive),C. sputorum,"− (−, 0-10% of strains positive)"
same,resistance (share of strains positive),C. jejuni subsp. Doylei,"− (−, 0-10% of strains positive)"
same,resistance (share of strains positive),C. jejuni subsp. Jejuni,"+ (+, 90-100% of strains positive)"
same,resistance (share of strains positive),C. avium sp. Nov,"+ (+, 90-100% of strains positive)"
same,resistance (share of strains positive),C. curvus,"− (−, 0-10% of strains positive)"
same,resistance (share of strains positive),[1],"− (−, 0-10% of strains positive)"
same,resistance (share of strains positive),C. fetus subsp. fetus,"− (−, 0-10% of strains positive)"
same,resistance (share of strains positive),[2],"(−) ((−), 11-25% of strains positive)"
same,resistance (share of strains positive),C. concisus,"− (−, 0-10% of strains positive)"
same,resistance (share of strains positive),[3],"− (−, 0-10% of strains positive)"
same,resistance (share of strains positive),C. upsaliensis,"(−) ((−), 11-25% of strains positive)"
same,resistance (share of strains positive),C. coli,"+ (+, 90-100% of strains positive)"
same,resistance (share of strains positive),C. rectus,"− (−, 0-10% of strains positive)"
same,resistance (share of strains positive),C. helveticus,"− (−, 0-10% of strains positive)"
same,"susceptibility / resistance of the novel Campylobacter strains, in words",[4],variable resistance; also recorded: some were sensitive
same,Susceptibility to (30 μg disc),[4]; strain Farm 1 2009/1,R
same,Susceptibility to (30 μg disc),[4]; strain Farm 1 2009/2,R
same,Susceptibility to (30 μg disc),[4]; strain Farm 1 2011/1,R
same,Susceptibility to (30 μg disc),[4]; strain Farm 1 2011/2,R
same,Susceptibility to (30 μg disc),[4]; strain Farm 1 2011/3,R
same,Susceptibility to (30 μg disc),[4]; strain Farm 1 2011/4,R
same,Susceptibility to (30 μg disc),[4]; strain Farm 1 2011/5,R
same,Susceptibility to (30 μg disc),[4]; strain Farm 1 2011/6,R
same,Susceptibility to (30 μg disc),[4]; strain Farm 2 2011/1,S
same,Susceptibility to (30 μg disc),[4]; strain Farm 2 2011/2,S
same,Susceptibility to (30 μg disc),[4]; strain Farm 2 2011/3,S
same,Susceptibility to (30 μg disc),[4]; strain Farm 2 2011/4,S
same,Susceptibility to (30 μg disc),[4]; strain Farm 3 2011/1,S
same,Susceptibility to (30 μg disc),[4]; strain Farm 3 2011/2,S
same,Susceptibility to (30 μg disc),[4]; strain Farm 3 2011/3,S
same,Susceptibility to (30 μg disc),[4]; strain Farm 4 2011/1,S
same,Susceptibility to (30 μg disc),[4]; strain Farm 4 2011/2,S
same,Susceptibility to (30 μg disc),[4]; strain Farm 4 2011/3,S
same,resistance (share of strains positive),[4],"V (V, 26-74% of strains positive)"
same,resistance (share of strains positive),C. showae,"− (−, 0-10% of strains positive)"
same,resistance (share of strains positive),C. insulaenigrae,"+ (+, 90-100% of strains positive)"
same,resistance (share of strains positive),C. mucosalis,"− (−, 0-10% of strains positive)"
same,MIC50,[5],32 µg/mL
same,MIC90,[5],32 µg/mL
same,resistance (share of strains positive),C. hominus,"− (−, 0-10% of strains positive)"
same,resistance (share of strains positive),C. gracilis,"− (−, 0-10% of strains positive)"
same,resistance (share of strains positive),C. cuniculurom,"(+) ((+), 75-89% strains positive)"
same,resistance (share of strains positive),C. canadensis,"− (−, 0-10% of strains positive)"
CCn1cc(C(=O)O)c(=O)c2ccc(C)nc21 [Nalidixic acid],resistance (share of strains positive),C. lari,"V (V, 26-74% of strains positive)"
same,resistance (share of strains positive),C. sputorum,"(+) ((+), 75-89% strains positive)"
same,resistance (share of strains positive),C. jejuni subsp. Doylei,"− (−, 0-10% of strains positive)"
same,resistance (share of strains positive),C. jejuni subsp. Jejuni,"− (−, 0-10% of strains positive)"
same,resistance (share of strains positive),C. avium sp. Nov,"− (−, 0-10% of strains positive)"
same,resistance (share of strains positive),C. curvus,"+ (+, 90-100% of strains positive)"
same,resistance (share of strains positive),[1],"+ (+, 90-100% of strains positive)"
same,resistance (share of strains positive),C. fetus subsp. fetus,"+ (+, 90-100% of strains positive)"
same,resistance (share of strains positive),[2],"+ (+, 90-100% of strains positive)"
same,resistance (share of strains positive),C. lanienae,"+ (+, 90-100% of strains positive)"
same,resistance (share of strains positive),C. concisus,"(+) ((+), 75-89% strains positive)"
same,resistance (share of strains positive),[3],"V (V, 26-74% of strains positive)"
same,resistance (share of strains positive),C. upsaliensis,"− (−, 0-10% of strains positive)"
same,resistance (share of strains positive),C. coli,"− (−, 0-10% of strains positive)"
same,resistance (share of strains positive),C. rectus,"(+) ((+), 75-89% strains positive)"
same,resistance (share of strains positive),C. helveticus,"− (−, 0-10% of strains positive)"
same,"susceptibility / resistance of the novel Campylobacter strains, in words",[4],susceptible
same,Susceptibility to (30 μg disc),[4]; strain Farm 1 2009/1,S
same,Susceptibility to (30 μg disc),[4]; strain Farm 1 2009/2,S
same,Susceptibility to (30 μg disc),[4]; strain Farm 1 2011/1,S
same,Susceptibility to (30 μg disc),[4]; strain Farm 1 2011/2,S
same,Susceptibility to (30 μg disc),[4]; strain Farm 1 2011/3,S
same,Susceptibility to (30 μg disc),[4]; strain Farm 1 2011/4,S
same,Susceptibility to (30 μg disc),[4]; strain Farm 1 2011/5,S
same,Susceptibility to (30 μg disc),[4]; strain Farm 1 2011/6,S
same,Susceptibility to (30 μg disc),[4]; strain Farm 2 2011/1,S
same,Susceptibility to (30 μg disc),[4]; strain Farm 2 2011/2,S
same,Susceptibility to (30 μg disc),[4]; strain Farm 2 2011/3,S
same,Susceptibility to (30 μg disc),[4]; strain Farm 2 2011/4,S
same,Susceptibility to (30 μg disc),[4]; strain Farm 3 2011/1,S
same,Susceptibility to (30 μg disc),[4]; strain Farm 3 2011/2,S
same,Susceptibility to (30 μg disc),[4]; strain Farm 3 2011/3,S
same,Susceptibility to (30 μg disc),[4]; strain Farm 4 2011/1,S
same,Susceptibility to (30 μg disc),[4]; strain Farm 4 2011/2,S
same,Susceptibility to (30 μg disc),[4]; strain Farm 4 2011/3,S
same,resistance (share of strains positive),[4],"− (−, 0-10% of strains positive)"
same,resistance (share of strains positive),C. showae,"− (−, 0-10% of strains positive)"
same,resistance (share of strains positive),C. insulaenigrae,"+ (+, 90-100% of strains positive)"
same,resistance (share of strains positive),C. mucosalis,"(+) ((+), 75-89% strains positive)"
same,MIC50,[5],4 µg/mL
same,MIC90,[5],8 µg/mL
same,resistance (share of strains positive),C. hominus,"V (V, 26-74% of strains positive)"
same,resistance (share of strains positive),C. gracilis,"V (V, 26-74% of strains positive)"
same,resistance (share of strains positive),C. cuniculurom,"V (V, 26-74% of strains positive)"
same,resistance (share of strains positive),C. canadensis,"V (V, 26-74% of strains positive)"

# Reference: patent publication US20150284674A1, “CAMPYLOBACTER BACTERIA AND DETECTION” (priority 2012, published 2015)
